Experimental data reported in patent publication US8569264B2, “Antibacterial 4,5-substituted aminoglycoside analogs having multiple substituents” (ISIS Pharmaceuticals, Inc., priority 2005, dated 2013).
Like-named read-outs stand apart in the source and are kept apart here.

Legend:
[1] = tested on: E. coli S30 bacterial extract (pBestLuc firefly luciferase reporter); assay: Coupled bacterial transcription/translation assay; assay type: biochemical; conditions: read-out: Trans/Trans IC50
Procedure: The DNA template, pBestLuc™ (Promega), is a plasmid containing a reporter gene for firefly luciferase fused to a strong tac promoter and ribosome binding site. Messenger RNA from 1 μg pBestLuc is transcribed and translated in E. coli S30 bacterial extract in the presence or absence of test compound. Compounds are tested in a black 96 well microtiter plate with an assay volume of 35 μL. […] The transcription/translation reaction is incubated for 35 minutes at 37° C. followed by detection of functional luciferase with the addition of 30 μL LucLite™ (Packard). Light output is quantitated on a Packard TopCount.

[2] = tested on: E. Coli; assay: MIC, E. Coli; assay type: cell-based
Procedure: (§1) The MIC assays are carried out in 150 μL volume in duplicate in 96-well clear flat-bottom plates. The bacterial suspension from an overnight culture growth in appropriate medium is added to a solution of test compound in 4% DMSO in water. Final bacterial inoculum is approximately 10^5-10^6 CFU/well. […] Both ampicillin and tetracycline are used as antibiotic-positive controls in each screening assay for S. pyogenes, E. coli imp-, E. coli, S. aureus, E. faecalis, K. pneumoniae and P. vulgaris. Ciprofloxacin is used as an antibiotic positive control in each screening assay for P. aeruginosa.

[3] = tested on: S. Aureus; assay: MIC, S. Aureus; assay type: cell-based
Procedure: as §1

[4] = target: 16S ribosomal subunit RNA target; assay: Mass spectrometry based binding assay (FTICR), 16S
Procedure: In a typical experiment, 10 μL of an aqueous solution containing 100 mM ammonium acetate buffer, […], and 33% isopropyl alcohol (to aid ion desolvation) was prepared with different concentrations of each ligand or ligand mixture Samples were introduced into the electrospray ionization source (negative ionization mode) at 1 μL/min and ions were stored for 1 sec in an RF-only hexapole following desolvation. The abundances were integrated from the respective ions for free RNA and the ligand-RNA complex. The primary (1:1 RNA:ligand) and secondary (1:2 complex, if observed). […] The peak ratios were measured at each concentration, then a plot of complex/free RNA versus concentration of ligand added was fitted to a second (or higher) order binding polynomial to determine the KD.

[5] = target: 18S ribosomal subunit RNA target; assay: Mass spectrometry based binding assay (FTICR), 18S
Procedure: In a typical experiment, 10 μL of an aqueous solution containing 100 mM ammonium acetate buffer, 2.5 or 5 μM of each RNA, and 33% isopropyl alcohol (to aid ion desolvation) was prepared with different concentrations of each ligand or ligand mixture Samples were introduced into the electrospray ionization source (negative ionization mode) at 1 μL/min and ions were stored for 1 sec in an RF-only hexapole following desolvation. The abundances were integrated from the respective ions for free RNA and the ligand-RNA complex. The primary (1:1 RNA:ligand) and secondary (1:2 complex, if observed). […] The peak ratios were measured at each concentration, then a plot of complex/free RNA versus concentration of ligand added was fitted to a second (or higher) order binding polynomial to determine the KD.

[6] = FTICR mass spectrometry, run at 100 nM RNA, Example 105
[7] = FTICR mass spectrometry, Example 105

## NCC1OC(OC2C(CO)OC(OC3C(O)C(N)CC(N)C3OC3OC(CO)C(O)C(O)C3N)C2OCCNCCc2cccnc2)C(N)C(O)C1O (stereo not drawn) [Compound 9o]
[1]; Example 105
  IC50: 200 nM
[2]; Example 105
  MIC E. Coli.: 6 to 12 µM
[3]; Example 105
  MIC S. Aureus: 0.6-1^ uM
[4]; [6]
  Kd: 200 nM
[5]; [7]
  Kd: 1000 nM

## NCCCNCCOC1C(OC2C(O)C(N)CC(N)C2OC2OC(CO)C(O)C(O)C2N)OC(CO)C1O (stereo not drawn) [Compound 30b]
[1]; Example 105
  IC50: 100 nM
[2]; Example 105
  MIC E. Coli.: 6 to 12 µM
[3]; Example 105
  MIC S. Aureus: 6 to 12 µM
[4]; [6]
  Kd: 9200 nM
[5]; [7]
  Kd: 18000 nM

## NCC1OC(OC2C(CO)OC(OC3C(O)C(N)CC(N)C3OC3OC(CO)C(O)C(O)C3N)C2OCCN(CCc2ccccc2)C(=O)c2ccccc2)C(N)C(O)C1O (stereo not drawn) [Compound 10]
[1]; Example 106
  IC50: 400 nM
[2]; Example 106
  MIC E. Coli.: 10 to 20 µM
[3]; Example 106
  MIC S. Aureus: 3 to 5 µM
[4]; Example 106
  Kd: 3900 nM
[5]; Example 106
  Kd: 2500 nM

## NCC1OC(OC2C(CO)OC(OC3C(O)C(N)CC(N)C3OC3OC(CNN)C(O)C(O)C3N)C2O)C(N)C(O)C1O (stereo not drawn) [Compound 15i]
[1]; Example 108
  IC50: 200 nM
[2]; Example 108
  MIC E. Coli.: 12 to 25 µM
[3]; Example 108
  MIC S. Aureus: 3 to 6 µM
[4]; Example 108
  Kd: 600 nM
[5]; Example 108
  Kd: 1700 nM

## CN(C)CCOC[C@H]1O[C@@H](O[C@@H]2[C@@H](O)[C@H](N)C[C@H](N)[C@H]2O[C@H]2O[C@H](CO)[C@@H](O)[C@H](O)[C@H]2N)[C@H](O)[C@@H]1O[C@H]1O[C@@H](CN)[C@@H](O)[C@H](O)[C@H]1N [Compound 54, 5″-O-(2-N,N-dimethylaminoethyl) paromomycin]
[1]; Example 105
  IC50: 300 nM
[2]; Example 105
  MIC E. Coli.: 6 to 12 µM
[3]; Example 105
  MIC S. Aureus: 25 to 50 µM
[4]; [6]
  Kd: 4100 nM
[5]; [7]
  Kd: 68000 nM

## NCC1OC(OC2C(CO)OC(OC3C(O)C(N)CC(N)C3OC3OC(CO)C(O)C(O)C3N)C2OCCNCCCCc2ccccc2)C(N)C(O)C1O (stereo not drawn) [Compound 9z]
[1]; Example 105
  IC50: 100 nM
[2]; Example 105
  MIC E. Coli.: 3 to 5 µM
[3]; Example 105
  MIC S. Aureus: 0.6 to 1.2 µM
[4]; [6]
  Kd: 700 nM
[5]; [7]
  Kd: 6400 nM

## NCC1OC(OC2C(CO)OC(OC3C(O)C(N)CC(N)C3OC3OC(CO)C(O)C(O)C3N)C2OCCNCc2nc3ccccc3[nH]2)C(N)C(O)C1O (stereo not drawn) [Compound 9e]
[1]; Example 105
  IC50: 200 nM
[2]; Example 105
  MIC E. Coli.: >100 µM
[3]; Example 105
  MIC S. Aureus: >100 µM
[4]; [6]
  Kd: 3900 nM
[5]; [7]
  Kd: 11000 nM

## CC(=O)N(CCOC1C(OC2C(O)C(N)CC(N)C2OC2OC(CO)C(O)C(O)C2N)OC(CO)C1OC1OC(CN)C(O)C(O)C1N)CCc1ccccc1 (stereo not drawn) [Compound 11]
[1]; Example 106
  IC50: 400 nM
[2]; Example 106
  MIC E. Coli.: 10 to 20 µM
[3]; Example 106
  MIC S. Aureus: 1 to 3 µM
[4]; Example 106
  Kd: 1500 nM
[5]; Example 106
  Kd: 6100 nM

## NCC1OC(OC2C(CO)OC(OC3C(O)C(N)CC(N)C3OC3OC(CO)C(O)C(O)C3N)C2OCCNCc2ccc(N)nc2)C(N)C(O)C1O (stereo not drawn) [Compound 9s]
[1]; Example 105
  IC50: 200 nM
[2]; Example 105
  MIC E. Coli.: 3 to 6 µM
[3]; Example 105
  MIC S. Aureus: 0.3 to 0.6 µM
[4]; [6]
  Kd: 100 nM
[5]; [7]
  Kd: 500 nM

## NCCCNCC1OC(OC2C(N)CC(N)C(O)C2OC2OC(CO)C(OC3OC(CN)C(O)C(O)C3N)C2O)C(N)C(O)C1O (stereo not drawn) [Compound 15b]
[1]; Example 108
  IC50: 200 nM
[2]; Example 108
  MIC E. Coli.: 2.5-5^ uM
[3]; Example 108
  MIC S. Aureus: 1.3 to 2.5 µM
[4]; Example 108
  Kd: 1600 nM
[5]; Example 108
  Kd: 1400 nM

## CC(C)NCC1OC(OC2C(N)CC(N)C(O)C2OC2OC(CO)C(OC3OC(CN)C(O)C(O)C3N)C2O)C(N)C(O)C1O (stereo not drawn) [Compound 15h]
[1]; Example 108
  IC50: 200 nM
[2]; Example 108
  MIC E. Coli.: 2.5-5^ uM
[3]; Example 108
  MIC S. Aureus: 1.3 to 2.5 µM
[4]; Example 108
  Kd: 1200 nM
[5]; Example 108
  Kd: 1200 nM

## NCC1OC(OC2C(CO)OC(OC3C(O)C(N)CC(N)C3OC3OC(CO)C(O)C(O)C3N)C2OCCNC2CCCCC2)C(N)C(O)C1O (stereo not drawn) [Compound 9n]
[1]; Example 105
  IC50: 200 nM
[2]; Example 105
  MIC E. Coli.: 3 to 6 µM
[3]; Example 105
  MIC S. Aureus: 3 to 5 µM
[4]; [6]
  Kd: 100 nM
[5]; [7]
  Kd: 400 nM

## NCCOC1C(OC2C(O)C(N)CC(N)C2OC2OC(CO)C(O)C(O)C2N)OC(CO)C1O (stereo not drawn) [Compound 30a]
[1]; Example 105
  IC50: 200 nM
[2]; Example 105
  MIC E. Coli.: 6 to 12 µM
[3]; Example 105
  MIC S. Aureus: 12 to 25 µM
[4]; [6]
  Kd: 19000 nM
[5]; [7]
  Kd: 58000 nM

## CC(C)(C)OC(=O)NNCC1OC(OC2C(N)CC(N)C(O)C2OC2OC(CO)C(OC3OC(CN)C(O)C(O)C3N)C2O)C(N)C(O)C1O (stereo not drawn) [Compound 15d]
[1]; Example 108
  IC50: 300 nM
[2]; Example 108
  MIC E. Coli.: 6 to 12 µM
[3]; Example 108
  MIC S. Aureus: 12 to 25 µM
[4]; Example 108
  Kd: 10 nM
[5]; Example 108
  Kd: 1400 nM

## NCC1OC(OC2C(CO)OC(OC3C(O)C(N)CC(N)C3OC3OC(CO)C(O)C(O)C3N)C2OCCNCC2CCCNC2)C(N)C(O)C1O (stereo not drawn) [Compound 9k]
[1]; Example 105
  IC50: 40 nM
[2]; Example 105
  MIC E. Coli.: 1.5-3^ uM
[3]; Example 105
  MIC S. Aureus: 3 to 6 µM
[4]; [6]
  Kd: 300 nM
[5]; [7]
  Kd: 2600 nM

## NCC1OC(OC2C(CO)OC(OC3C(O)C(N)CC(N)C3OC3OC(CO)C(O)C(O)C3N)C2OCCNC2CCCNC2)C(N)C(O)C1O (stereo not drawn) [Compound 9j]
[1]; Example 105
  IC50: 100 nM
[2]; Example 105
  MIC E. Coli.: 1.5-3^ uM
[3]; Example 105
  MIC S. Aureus: 3 to 6 µM
[4]; [6]
  Kd: 100 nM
[5]; [7]
  Kd: 5000 nM

## NCC1OC(OC2C(CO)OC(OC3C(O)C(N)CC(N)C3OC3OC(CO)C(O)C(O)C3N)C2OCCNc2cnc3ccccc3c2)C(N)C(O)C1O (stereo not drawn) [Compound 9m]
[1]; Example 105
  IC50: 100 nM
[2]; Example 105
  MIC E. Coli.: 12 to 25 µM
[3]; Example 105
  MIC S. Aureus: 1 to 2 µM
[4]; [6]
  Kd: 100 nM
[5]; [7]
  Kd: 900 nM

## CNCC1OC(OC2C(N)CC(N)C(O)C2OC2OC(CO)C(OC3OC(CN)C(O)C(O)C3N)C2O)C(N)C(O)C1O (stereo not drawn) [Compound 15e]
[1]; Example 108
  IC50: 200 nM
[2]; Example 108
  MIC E. Coli.: 2 to 3 µM
[3]; Example 108
  MIC S. Aureus: 2 to 3 µM
[4]; Example 108
  Kd: 400 nM
[5]; Example 108
  Kd: 1200 nM

## NCC1OC(OC2C(CO)OC(OC3C(O)C(N)CC(N)C3OC3OC(CO)C(O)C(O)C3N)C2OCCNCCc2ccc(-c3ccccc3)cc2)C(N)C(O)C1O (stereo not drawn) [Compound 9aa]
[1]; Example 106
  IC50: 1500 nM
[2]; Example 106
  MIC E. Coli.: 20 to 40 µM
[3]; Example 106
  MIC S. Aureus: 5 to 10 µM
[4]; Example 106
  Kd: 900 nM
[5]; Example 106
  Kd: 3500 nM

## NCC1OC(OC2C(CO)OC(OC3C(O)C(N)CC(N)C3OC3OC(CO)C(O)C(O)C3N)C2OCCNc2ccccn2)C(N)C(O)C1O (stereo not drawn) [Compound 9u]
[1]; Example 105
  IC50: 400 nM
[2]; Example 105
  MIC E. Coli.: 12 to 25 µM
[3]; Example 105
  MIC S. Aureus: 1 to 2 µM
[4]; [6]
  Kd: 5000 nM
[5]; [7]
  Kd: 22000 nM

## NCC1OC(OC2C(CO)OC(OC3C(O)C(N)CC(N)C3OC3OC(CO)C(O)C(O)C3N)C2OCCNCc2ccccc2)C(N)C(O)C1O (stereo not drawn) [Compound 9q]
[1]; Example 105
  IC50: 800 nM
[2]; Example 105
  MIC E. Coli.: 3 to 6 µM
[3]; Example 105
  MIC S. Aureus: 3 to 5 µM
[4]; [6]
  Kd: 100 nM
[5]; [7]
  Kd: 300 nM

## NC[C@@H]1O[C@H](O[C@H]2[C@@H](O)[C@H](O[C@@H]3[C@@H](O)[C@H](N)C[C@H](N)[C@H]3O[C@H]3O[C@H](CN)[C@@H](O)[C@H](O)[C@H]3N)O[C@@H]2CO)[C@H](N)[C@@H](O)[C@@H]1O [Neomycin B, reference compound]
[1]; Example 106
  IC50: 200 nM
[4]; Example 106
  Kd: 40 nM
[5]; Example 106
  Kd: 300 nM
